Assay results taken from patent US8394824B2 (priority 2004, dated 2013).

Columns and labels:
[1] = test system: specific allergic asthma of guinea pigs; conditions: guinea pig, in vivo

Structure (SMILES)	ileum contraction response resulted from electric irritation (ex vivo ileum specimen)	latent period [1] [s]
C[N+]12CCC(CC1)C(OCC(O)(c1ccccc1)C1CCCC1)C2.[Br-] (stereo not drawn) [Example 2, 3-(N-methyl-quinuclidinyl)-(2′-phenyl-2′-cyclopentyl-2′-hydroxyl)ethyl ether bromide]	completely blocked	248.90 ± 38.24
C[N+]12CCC(CC1)C(OCC(O)(c1ccccc1)C1CCCC1)C2.[Br-] (single isomer, unassigned) [Example 4, II-type diastereoisomer of 3-(N-methyl-quinuclidinyl)-(2′-phenyl-2′-cyclopentyl-1-2′-hydroxyl)ethyl ether bromide]	completely blocked	231.60 ± 37.30
C[N+]12CCC(CC1)C(OCC(O)(c1ccccc1)C1CCCC1)C2.[Br-] (single isomer, unassigned) [Example 3, 1-type diastereoisomer of 3-(N-methyl-quinuclidinyl)-(2′-phenyl-2′-cyclopentyl-2′-hydroxyl)ethyl ether bromide]	completely blocked	243.50 ± 42.13
